# “And” between values parts separate entries of the source, which are not always exact repeats. Identical values can stand only once. “Also recorded” adds a separate entry of the source. Like-named read-outs stand apart in the source and are kept apart here. Marks after values point to notes of the source that are not given here.
# Experiments:
# [1] = test system: p21^WAF1; experiment: p21WAF1 transcription reporter (hCG excretion) in A2780/p21WAF1 cells; format: cell-based, human; settings: 24 hrs exposure; β-hCG excretion
# [2] = test system: HT-29; experiment: SRB cytotoxicity assay 48 hr; format: cell-based, human; settings: read-out: IC50 Values After 48 Hrs Exposure
# Procedure: (§3) The SRB assay was performed according to the method specified by the NIC/NIH. […] Assay replicates were independent in time and up to 4 replicates were performed per cell line.
# [3] = test system: Hep3B; experiment: SRB cytotoxicity assay 48 hr; format: cell-based, human; settings: read-out: IC50 Values After 48 Hrs Exposure
# Procedure: as §3
# [4] = test system: A549; experiment: SRB cytotoxicity assay 48 hr; format: cell-based, human; settings: read-out: IC50 Values After 48 Hrs Exposure
# Procedure: as §3
# [5] = test system: SK-OV3; experiment: ATP depletion cytotoxicity assay 48 hr; format: cell-based, human
# Procedure: (§4) Assay replicates were independent in time and up to 4 replicates were performed per cell line.
# (§5) Cells were plated at the optimal plating density for that cell line in 96-well plates and allowed to attach overnight. The next day, the medium was removed and replaced with fresh medium containing the dose ranges of test items. […] There were 3 replicates for each test item concentration.
# (§6) Following exposure to Test Items, the CellTitre-Glo Luminescent Cell Viability Assay to measure ATP content was performed according to the manufacturer's detailed instructions (Promega Corporation, Technical Bulletin No. 288, and Cell notes, Issue 10, 2004).
# (§7) Cells were plated at the optimal plating density for that cell line in 96-well plates and allowed to attach overnight. The next day, cells were pre-treated with the inhibitors UO126 or LY294002 (see Tables 18 & 20) for 2 hrs, the medium was removed and replaced with fresh medium containing the appropriate dose of the test item. […] Cells were exposed to these compounds in Roswell Park Memorial Institute (RPMI) medium containing 10% Foetal Calf Serum (FCS) and 2 mM Glutamine at 37° C. and 5% CO2 for 48 hours. There were 3 replicates for each test item concentration.
# (§8) Following exposure to Test Items, the CellTitre-Glo Luminescent Cell Viability Assay to measure ATP content will be performed according to the manufacturer's detailed instructions (Promega Corporation, Technical Bulletin No. 288, and Cell notes, Issue 10, 2004).
# [6] = test system: CaCo-2; experiment: ATP depletion cytotoxicity assay 48 hr; format: cell-based, human
# Procedure: as §4, §5, §6, §7, §8
# [7] = PANC-1 xenograft in female nude mice; format: in vivo, nude mouse; settings: female, nude, mouse, plasma, 25 mg/kg; PANC-1 model; 24 hrs post last dose; Day 88
# Procedure: (§1) A further xenograft model was performed using the human pancreatic cell line PANC-1. This tumour is slow growing in vivo. […] For various reasons, animals were lost during the study and the final group sizes were small. […] This experiment is currently being repeated to try to obtain larger group sizes at experimental completion.
# (§2) In-life and terminal blood samples taken from the mice were analysed for CXR1002 levels using a validated analytical method. In-life samples averaged 146 μM and terminal blood samples (24 hours post final dose) averaged 474 μM (FIG. 7). Plasma values were higher than the whole blood values. This may be attributed to the duration of dosing. […] Furthermore, the erythrocyte/plasma partitioning coefficient (which measures the amount of drug bound to red cells compared to plasma binding) may contribute to the observed differences.
# [8] = test system: PANC-1 (pancreas) xenograft tumours; experiment: PANC-1 xenograft in female nude mice; format: in vivo, nude mouse
# Procedure: as §1, §2
# [9] = test system: patients with advanced cancer; experiment: Phase I study CXR1002-001: anti-tumour response; format: in vivo, human
# [10] = Water solubility; format: physicochemical
# [11] = test system: pregnenolone X receptor (PXR); settings: species-specific basis; Ren (2009); cited from earlier work
smiles,measurement,setting,value
O=C(O)C(F)(F)C(F)(F)C(F)(F)C(F)(F)C(F)(F)C(F)(F)C(F)(F)F [CXR1002],activation of transcription of p21^WAF1,[1],did not activate transcription
same,IC50,[2],342 ± 10.6 µM
same,IC50,[3],215 ± 28.3 µM
same,IC50,[4],230 ± 21.8 µM
same,IC50,"[5]; Homo sapiens, SK-OV-3, 48 h, read-out: IC50 1-4 (independent replicates)",550 µM
same,IC50,"[5]; Homo sapiens, SK-OV-3, 48 h, read-out: IC50 Mean",535 µM
same,IC50,[5]; read-out: IC50 1-4 (independent replicates),520 µM
same,IC50,"[6]; ATP depletion, 48 hrs, CaCo-2, read-out: IC50 1-4 (independent replicates)",690 µM and 670 µM
same,IC50,"[6]; Homo sapiens, Caco-2, 48 h, ATP depletion, 48 hrs, CaCo-2, read-out: IC50 1-4 (independent replicates)",680 µM
same,IC50,"[6]; Homo sapiens, Caco-2, 48 h, ATP depletion, 48 hrs, CaCo-2, read-out: IC50 Mean",680 µM
same,IC50,"[6]; Homo sapiens, Caco-2, 48 h, Example 7, 48 hour, CaCO2, CXR1002 0-1 mM, U0126 fixed 10 μM where combined, read-out: IC50",704 µM
same,concentration at 24 h,[7],474 µM
same,tumour growth,"[8]; 25 mg/kg, 3 times per week",substantially delayed tumour growth
same,Absolute Tumour Volume as a Percentage of Saline Control,"[8]; PANC-1, 25 mg/kg 3 times per week, Day 82",50.13%
same,Terminal CXR1002 plasma levels,"[8]; PANC-1 model, 24 hrs post last dose, Day 88",474 ± 153 µM
same,In-life blood CXR1002 level (average),"[8]; PANC-1 model, in-life samples",146 µM
same,On-Study Duration,"[9]; 50 mg/week, pancreatic",35 weeks
same,On-Study Duration,"[9]; 100 mg/week, colorectal",20 weeks
same,On-Study Duration,"[9]; 200 mg/week, anaplastic thyroid, patient remains on study",22* weeks
same,On-Study Duration,"[9]; 200 mg/week, cervical, patient remains on study",22* weeks
same,best response,[9]; investigator assessment,stable disease
same,duration of stable disease,[9]; one patient with pancreatic cancer,7 months
same,solubility in water,[10],freely soluble in water; also recorded: highly water soluble
same,activation of PXR,[11],are activated

# Reference: US20130029928A1 (priority 2010, published 2013)
